For one assay, the system named is MDA435/LCC6 MDR cells. Nature of the assay: cells. The settings on record: for IC50: Homo sapiens; for RF (relative fold): LCC6 MDR, drug alone (reference). How it is done:
(§1) MDA435/LCC6 and P388 (both parent and MDR subtype) were maintained in DMEM and RPMI 1640 culture medium supplemented with 10% FBS, respectively. RPMI 1640 media also contained 100 units/ml penicillin and 100 μg/ml streptomycin. Cells were cultured at 37° C. in a humidified atmosphere with 5% CO2. A solution of 0.05% trypsin-EDTA was used to detach the MDA435/LCC6 (both wild type and MDR subtype) cells.
(§2) Cell proliferation assay. MDA435/LCC6 and P388 (both parent and MDR subtype) cells were seeded at 2000 and 5000 cells per well, respectively, in 96-well plates. Varying concentrations of anticancer drugs (Doxorubicin, Daunorubicin, Vincristine, Vinblastine, taxol, Mitoxantrone) with or without the flavonoid dimers were added in a final volume of 200 μl and cells were grown for 4 and 3 days for MDA435/LCC6 and P388 (both parent and MDR subtype) cells, respectively. For MDA435/LCC6 (both parent and MDR subtype), the corresponding drugs were added after cell attachment (24 hr incubation). To measure cell proliferation, the cell Titer 960 Aqueous Assay (Promega) was used according to the manufacturer's instructions. Briefly, MTS (2 mg/ml) and PMS (0.92 mg/ml) were mixed in a ratio of 20:1. 30 μl MTS/PMS mixture was added into each well and incubated for 2 hours at 37° C. Optical absorbance at 490 nm was then recorded using an ELISA microtiter plate reader (Bio-Rad). Each experiment was done at least in triplicate and repeated twice. Cytotoxicity of the anticancer drugs was expressed as the fraction of the cells survived relative to the untreated DMSO (0.05%) solvent controls.
MDA435/LCC6 is an estrogen-independent human breast cancer cell line. Its MDR subtype (MDA435/LCC6 MDR) was generated by transducing a retroviral vector directing the constitutive expression of the human MDR1 cDNA, producing a cell line with a classical MDR1 resistance pattern (MDA435/LCC6 and MDA435/LCC6MDR1: ascites models of human breast cancer. Br J Cancer 1996, 73, 154-161). The ability of the apigenin dimers of this invention to reverse taxol resistance in MDA435/LCC6 MDR cells were tested. […] Apigenin monomers 10a and 10b at 10 μM were used as the negative controls.

The next assay has as its system MDA435/LCC6 cells. Nature of the assay: Cell proliferation (MTS) assay, parental sensitive cells. The class given is cell-based. The settings on record: Homo sapiens, read-out: IC50 (nM) of anticancer drug alone. An excerpt:
(§3) Cell proliferation assay.

A further assay concerns P388/ADR cells. The assay is described as follows: cells. The settings on record: P388/ADR; for IC50: Mus musculus; for RF (relative fold): drug alone (reference). The method, then:
as §1, §2

The test system of the next assay is P388 cells. The assay is described as follows: Cell proliferation (MTS) assay, parental sensitive cells. The settings on record: Mus musculus. The class given is cell-based, murine.
From the text: as §3

[1] abbreviates: 96 h, read-out: IC50 (nM) of anticancer drug alone, LCC6 MDR, drug alone, no modulator.
[2] abbreviates: read-out: IC50 (nM) of anticancer drug alone.
Where [3] appears, read: P388, drug alone, read-out: IC50 (nM) of anticancer drug alone.
The mark [4] stands for this setting: read-out: IC50 of anticancer drug alone.

Like-named read-outs stand apart in the source and are kept apart here.

For the compound `CC[C@]1(O)C[C@H]2CN(CCc3c([nH]c4ccccc34)[C@@](C(=O)OC)(c3cc4c(cc3OC)N(C=O)[C@H]3[C@@](O)(C(=O)OC)[C@H](OC(C)=O)[C@]5(CC)C=CCN6CC[C@]43[C@@H]65)C2)C1` [Vincristine], the IC50 – broadly, the midpoint of a concentration-inhibition curve – stood at 26 nM with MDA435/LCC6 MDR cells (setting [1]); 0.29 nM with MDA435/LCC6 cells (LCC6, drug alone); 299 nM in the assay on P388/ADR cells (setting [2]); 2.2 nM in the assay on P388 cells (setting [3]). The “RF (relative fold)” value in the assay with MDA435/LCC6 MDR cells and with P388/ADR cells was 1 in each case.
On to `CC(=O)O[C@H]1C(=O)[C@@]2(C)[C@H]([C@H](OC(=O)c3ccccc3)[C@]3(O)C[C@H](OC(=O)[C@H](O)[C@@H](NC(=O)c4ccccc4)c4ccccc4)C(C)=C1C3(C)C)[C@]1(OC(C)=O)CO[C@@H]1C[C@@H]2O` [Taxol, paclitaxel], for which the IC50 amounted to 115 nM in the assay on MDA435/LCC6 MDR cells (setting [1]); 128 nM with MDA435/LCC6 MDR cells (read-out: Mean IC50 of taxol (nM), LCC6MDR, no analog added (control)); 2.9 nM with MDA435/LCC6 cells (LCC6, drug alone); 1640 nM in the assay with P388/ADR cells (setting [2]); 22 nM in the assay on P388 cells (setting [3]). The “RF (relative fold)” value in the assay on MDA435/LCC6 MDR cells and with P388/ADR cells was 1 each time.
For `COc1cccc2c1C(=O)c1c(O)c3c(c(O)c1C2=O)C[C@@](O)(C(=O)CO)C[C@@H]3O[C@H]1C[C@H](N)[C@H](O)[C@H](C)O1` [Doxorubicin], the IC50 with MDA435/LCC6 MDR cells (setting [1]) is 4690 nM; with MDA435/LCC6 cells (LCC6, drug alone), 300 nM; in the assay on P388/ADR cells (setting [2]) it was 1740 nM; with P388/ADR cells (setting [4]) it was 1500 nM; with P388 cells (setting [3]), 22 nM. For the same compound, the “RF (relative fold)” value in the assay with MDA435/LCC6 MDR cells and in the assay with P388/ADR cells was 1 in each case. Also, the “IC60 of doxorubicin alone” value in the assay on MDA435/LCC6 MDR cells (MDA435/LCC6 MDR, no modulator, FIG. 5) was determined as 4700 nM.
For the compound `COc1cccc2c1C(=O)c1c(O)c3c(c(O)c1C2=O)C[C@@](O)(C(C)=O)C[C@@H]3O[C@H]1C[C@H](N)[C@H](O)[C@H](C)O1` [Daunorubicin], the IC50 was determined as 977 nM in the assay on MDA435/LCC6 MDR cells (setting [1]); 79 nM with MDA435/LCC6 cells; 2110 nM in the assay with P388/ADR cells (setting [2]); 2100 nM with P388/ADR cells (setting [4]); 25 nM with P388 cells (P388, read-out: IC50 (nM) of anticancer drug alone). Further, the “RF (relative fold)” value in the assay with MDA435/LCC6 MDR cells and with P388/ADR cells was 1 in each case.
Regarding `O=C1c2c(O)ccc(O)c2C(=O)c2c(NCCNCCO)ccc(NCCNCCO)c21` [Mitoxantrone], the IC50 was 1440 nM in the assay with MDA435/LCC6 MDR cells (setting [1]); 0.35 nM with MDA435/LCC6 cells (LCC6, drug alone); 395 nM in the assay on P388/ADR cells (setting [2]); 4.3 nM in the assay on P388 cells (setting [3]). Also, the “RF (relative fold)” value in the assay with MDA435/LCC6 MDR cells and with P388/ADR cells was 1 each time.
